# Active and inactive are the calls of the source. The calls are words filed in the database; no cut-off is given here.
# How the values were obtained:
# [1] = molecular target: Rho-associated protein kinase 1 (Homo sapiens, UniProt Q13464); experiment: Inhibition of recombinant human ROCK1 measured after 60 mins in presence of [gamma-33P]-ATP by scintillation counting method
# [2] = test system: IEC-6; experiment: Cytotoxicity against rat IEC-6 cells assessed as reduction in cell viability measured after 24 to 72 hrs by MTT assay; type: cell-based; settings: Rattus norvegicus, IEC-6
# [3] = test system: HeLa; experiment: Cell cycle arrest in human HeLa cells assessed as accumulation at G0/G1-phase at 0.1 to 0.6 uM after 24 hrs by propidium iodide staining-based FACS analysis; type: functional
# [4] = molecular target: Proto-oncogene tyrosine-protein kinase Src (Homo sapiens, UniProt P12931); experiment: Inhibition of recombinant human full-length N-terminal GST-His6-fused SRC (M1 to L536 residues) expressed in Sf9 insect cells using Poly(Glu:Tyr)4:1 as substrate measured after 60 mins in presence of [gamma-33P]-ATP by scintillation counting method
# [5] = molecular target: BDNF/NT-3 growth factors receptor (Homo sapiens, UniProt Q16620); experiment: Inhibition of recombinant human N-terminal GST-His6-fused TRKB C-terminal domain (V526 to G838 residues) expressed in Sf9 insect cells using Poly(Glu:Tyr)4:1 as substrate measured after 60 mins in presence of [gamma-33P]-ATP by scintillation counting method
# [6] = molecular target: Mast/stem cell growth factor receptor Kit (Homo sapiens, UniProt P10721); experiment: Inhibition of recombinant human wild-type N-terminal GST-His6-fused KIT C-terminal domain (T544 to V976 residues) expressed in Sf9 insect cells using TRK-C derived peptide as substrate measured after 60 mins in presence of [gamma-33P]-ATP by scintillation counting method
# [7] = molecular target: 3-phosphoinositide-dependent protein kinase 1 (Homo sapiens, UniProt O15530); experiment: Inhibition of recombinant human N-terminal His6-fused PDK1 (M1 to M460 residues) expressed in Sf9 insect cells using tetra(LRRWSLG) peptide as substrate measured after 60 mins in presence of [gamma-33P]-ATP by scintillation counting method
# [8] = molecular target: Vascular endothelial growth factor receptor 1 (Homo sapiens, UniProt P17948); experiment: Inhibition of recombinant human N-terminal GST-tagged VEGFR1 C-terminal domain (K784 to I1338 residues) expressed in Sf9 insect cells using Poly(Glu:Tyr)4:1 as substrate measured after 60 mins in presence of [gamma-33P]-ATP by scintillation counting method
# [9] = test system: IEC-6; experiment: Cell cycle arrest in rat IEC-6 cells assessed as decrease in accumulation at G2-phase at 0.1 to 0.6 uM after 24 hrs by propidium iodide staining-based FACS analysis; type: ADME; settings: iec-6, 24 h
# [10] = molecular target: Fibroblast growth factor receptor 4 (Homo sapiens, UniProt P22455); experiment: Inhibition of recombinant human N-terminal GST-His6-fused FGFR4 (R391 to T802 residues) expressed in baculovirus infected Sf9 cells using Poly(Glu:Tyr)4:1 as substrate measured after 60 mins in presence of [gamma-33P]-ATP by scintillation counting method
# [11] = molecular target: Focal adhesion kinase 1 (Homo sapiens, UniProt Q05397); experiment: Inhibition of recombinant human N-terminal GST-fused FAK (2 to 1052 residues) expressed in Sf9 insect cells using Poly(Glu/Tyr)4:1 as substrate measured after 60 mins in presence of [gamma-33P]-ATP by scintillation counting method
# [12] = test system: HeLa; experiment: Induction of apoptosis in human HeLa cells assessed as effect on PARP level at 0.1 to 0.6 uM after 24 hrs by FACS analysis; type: functional, cell-based
# [13] = molecular target: RAC-beta serine/threonine-protein kinase (Homo sapiens, UniProt P31751); experiment: Inhibition of recombinant human N-terminal GST-His6-fused AKT2 C-terminal domain (A107 to E481 residues) expressed in Sf9 insect cells using GSK3(14-27)tide as substrate measured after 60 mins in presence of [gamma-33P]-ATP by scintillation counting method
# [14] = molecular target: Hepatocyte growth factor receptor (Homo sapiens, UniProt P08581); experiment: Inhibition of recombinant human wild-type N-terminal GST-His6-fused MET C-terminal domain (K956 to S1390 residues) expressed in Sf9 insect cells using TRK-C derived peptide as substrate measured after 60 mins in presence of [gamma-33P]-ATP by scintillation counting method
# [15] = molecular target: Receptor tyrosine-protein kinase erbB-4 (Homo sapiens, UniProt Q15303); experiment: Inhibition of recombinant human N-terminal GST-His6-fused ERBB4 C-terminal domain (R676 to V1307 residues) expressed in Sf9 cells using Poly(Glu:Tyr)4:1 as substrate measured after 60 mins in presence of [gamma-33P]-ATP by scintillation counting method
# [16] = molecular target: Vascular endothelial growth factor receptor 3 (Homo sapiens, UniProt P35916); experiment: Inhibition of recombinant human N-terminal GST-His6 fused VEGFR3 C-terminal domain (N799 to R1298 residues) expressed in baculovirus infected Sf9 insect cells using Poly(Glu:Tyr)4:1 as substrate measured after 60 mins in presence of [gamma-33P]-ATP by scintillation counting method
# [17] = molecular target: Casein kinase II subunit alpha' (Homo sapiens, UniProt P19784); experiment: Inhibition of recombinant human full-length N-terminal GST-His6-fused CK2-alpha2 (M1 to R350 residues) expressed in Sf9 insect cells using casein as substrate measured after 60 mins in presence of [gamma-33P]-ATP by scintillation counting method
# [18] = test system: HeLa; experiment: Induction of ROS generation in human HeLa cells at 0.1 to 0.6 uM measured after 24 hrs by H2DC-DA probe-based FACS analysis; type: functional, cell-based
# [19] = test system: IEC-6; experiment: Induction of apoptosis in rat IEC-6 cells assessed as increase in caspase 3 level at 0.1 to 0.6 uM after 24 hrs by FACS analysis; type: cell-based; settings: iec-6, 24 h
# [20] = test system: HeLa; experiment: Cell cycle arrest in human HeLa cells assessed as decrease in accumulation at G2-phase at 0.1 to 0.6 uM after 24 hrs by propidium iodide staining-based FACS analysis; type: functional
# [21] = molecular target: Mitogen-activated protein kinase kinase kinase 1 (Homo sapiens, UniProt Q13233); experiment: Inhibition of recombinant human N-terminal 4xFLAG-tagged/C-terminal His8 fused MAP3K1 C-terminal domain (M1193 to W1512 residues) expressed in Sf9 insect cells using Bio-RS-Peptide as substrate measured after 60 mins in presence of [gamma-33P]-ATP by scintillation counting method
# [22] = molecular target: Casein kinase II subunit alpha (Homo sapiens, UniProt P68400); experiment: Inhibition of recombinant human full-length N-terminal GST-fused CK2-alpha1 (M1 to Q391 residues) expressed in Sf9 insect cells using casein as substrate measured after 60 mins in presence of [gamma-33P]-ATP by scintillation counting method
# [23] = test system: IEC-6; experiment: Induction of apoptosis in rat IEC-6 cells assessed as effect on PARP level at 0.1 to 0.6 uM after 24 hrs by FACS analysis; type: cell-based; settings: iec-6, 24 h
# [24] = test system: MCF7; experiment: Antiproliferative activity against human MCF7 cells assessed as decrease in cell viability measured after 72 hrs by MTT assay; type: functional, cell-based; settings: MCF7, 72 h
# [25] = test system: HeLa; experiment: Inhibition of ERK phosphorylation in human HeLa cells at 0.1 to 0.6 uM after 24 hrs by FACS analysis; type: cell-based
smiles,measurement,setting,value
CN(CCc1ccc(-c2ccccc2)cc1)Cc1cn(C)c2ccc(C(=O)Nc3ccc(F)cc3)cc12,IC50,[1],35 µM
same,IC50,[2],6.43 µM
same,Activity,[3],Active
same,IC50,[4],8.8 µM
same,IC50,[5],6.3 µM
same,IC50,[6],11 µM
same,IC50,[7],11 µM
same,IC50,[8],43 µM
same,Activity,[9],Toxic
same,IC50,[10],11 µM
same,IC50,[11],> 100 µM
same,Activity,[12],inactive
same,IC50,[13],21 µM
same,IC50,[14],61 µM
same,IC50,[15],7.9 µM
same,IC50,[16],> 100 µM
same,IC50,[17],99 µM
same,Activity,[18],Active
same,Activity,[19],Toxic
same,Activity,[20],Active
same,IC50,[21],66 µM
same,IC50,[22],> 100 µM
same,Activity,[23],Non-Toxic
same,IC50,[24],2.16 µM
same,inhibition,[25],Active

# Reference: ChEMBL document CHEMBL4340507, “Identification of an indol-based multi-target kinase inhibitor through phenotype screening and target fishing using inverse virtual screening approach” (Eur J Med Chem, 2019)
